Data: PubChem BioAssay (NCI)
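Method: 48-hour compound exposure of cells in 96-well plates, five concentrations, linear interpolation of endpoints. TGI marks complete inhibition of growth.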

Assays:
Assay in all cases: NCI tumour cell line growth inhibition, 48 h
OVCAR-5 ovarian = system: OVCAR-5 ovarian
ACHN renal = system: ACHN renal
SK-MEL-2 melanoma = system: SK-MEL-2 melanoma
NCI/ADR-RES ovarian = system: NCI/ADR-RES ovarian
COLO 205 colon = system: COLO 205 colon
RPMI-8226 leukemia = system: RPMI-8226 leukemia
MALME-3M melanoma = system: MALME-3M melanoma
SF-295 CNS = system: SF-295 CNS
MDA-MB-435 = system: MDA-MB-435
LOX IMVI melanoma = system: LOX IMVI melanoma
SF-539 CNS = system: SF-539 CNS
UACC-62 melanoma = system: UACC-62 melanoma
HS 578T breast = system: HS 578T breast
HCT-116 colon = system: HCT-116 colon
SNB-75 CNS = system: SNB-75 CNS
NCI-H522 lung = system: NCI-H522 lung
HOP-62 NSCLC = system: HOP-62 NSCLC
RXF 393 renal = system: RXF 393 renal
A549 NSCLC = system: A549 NSCLC
PC-3 prostate = system: PC-3 prostate
KM12 colon = system: KM12 colon
MDA-N = system: MDA-N
TK-10 renal = system: TK-10 renal
HOP-92 NSCLC = system: HOP-92 NSCLC
CAKI-1 renal = system: CAKI-1 renal
UO-31 renal = system: UO-31 renal
HL-60(TB) leukemia = system: HL-60(TB) leukemia
EKVX NSCLC = system: EKVX NSCLC
SK-MEL-5 melanoma = system: SK-MEL-5 melanoma
K-562 leukemia = system: K-562 leukemia
786-0 renal = system: 786-0 renal
HCT-15 colon = system: HCT-15 colon
A498 renal = system: A498 renal
NCI-H460 lung = system: NCI-H460 lung
MOLT-4 leukemia = system: MOLT-4 leukemia
SF-268 CNS = system: SF-268 CNS
T-47D breast = system: T-47D breast
M14 melanoma = system: M14 melanoma
BT-549 breast = system: BT-549 breast
U251 CNS = system: U251 CNS
OVCAR-8 ovarian = system: OVCAR-8 ovarian
SK-OV-3 ovarian = system: SK-OV-3 ovarian
SW-620 colon = system: SW-620 colon
OVCAR-3 ovarian = system: OVCAR-3 ovarian
SN12C renal = system: SN12C renal
IGROV1 ovarian = system: IGROV1 ovarian
MDA-MB-231 breast = system: MDA-MB-231 breast
SK-MEL-28 melanoma = system: SK-MEL-28 melanoma
SR leukemia = system: SR leukemia
OVCAR-4 ovarian = system: OVCAR-4 ovarian
UACC-257 melanoma = system: UACC-257 melanoma
HT29 colon = system: HT29 colon
NCI-H226 lung = system: NCI-H226 lung
MCF7 breast = system: MCF7 breast
SNB-19 CNS = system: SNB-19 CNS
DU-145 prostate = system: DU-145 prostate
HCC-2998 colon = system: HCC-2998 colon
CCRF-CEM leukemia = system: CCRF-CEM leukemia
NCI-H23 lung = system: NCI-H23 lung

OC(c1nc2ccccc2[nH]1)C(O)C(O)C(O)c1nc2ccccc2[nH]1 (centres undefined)
TGI (OVCAR-5 ovarian): > 100 µM | TGI (ACHN renal): > 100 µM | TGI (SK-MEL-2 melanoma): > 100 µM | TGI (NCI/ADR-RES ovarian): > 100 µM | TGI (COLO 205 colon): > 100 µM | TGI (RPMI-8226 leukemia): > 100 µM | TGI (MALME-3M melanoma): > 100 µM | TGI (SF-295 CNS): > 100 µM | TGI (MDA-MB-435): > 100 µM | TGI (LOX IMVI melanoma): > 100 µM | TGI (SF-539 CNS): > 100 µM | TGI (UACC-62 melanoma): > 100 µM | TGI (HS 578T breast): > 100 µM | TGI (HCT-116 colon): > 100 µM | TGI (SNB-75 CNS): > 100 µM | TGI (NCI-H522 lung): > 100 µM | TGI (HOP-62 NSCLC): > 100 µM | TGI (RXF 393 renal): > 100 µM | TGI (A549 NSCLC): > 100 µM | TGI (PC-3 prostate): > 100 µM | TGI (KM12 colon): > 100 µM | TGI (MDA-N): > 100 µM | TGI (TK-10 renal): > 100 µM | TGI (HOP-92 NSCLC): > 100 µM | TGI (CAKI-1 renal): > 100 µM | TGI (UO-31 renal): > 100 µM | TGI (HL-60(TB) leukemia): > 100 µM | TGI (EKVX NSCLC): > 100 µM | TGI (SK-MEL-5 melanoma): > 100 µM | TGI (K-562 leukemia): > 100 µM | TGI (786-0 renal): > 100 µM | TGI (HCT-15 colon): > 100 µM | TGI (A498 renal): > 100 µM | TGI (NCI-H460 lung): > 100 µM | TGI (MOLT-4 leukemia): > 100 µM | TGI (SF-268 CNS): > 100 µM | TGI (T-47D breast): > 100 µM | TGI (M14 melanoma): > 100 µM | TGI (BT-549 breast): > 100 µM | TGI (U251 CNS): > 100 µM | TGI (OVCAR-8 ovarian): > 100 µM | TGI (SK-OV-3 ovarian): > 100 µM | TGI (SW-620 colon): > 100 µM | TGI (OVCAR-3 ovarian): > 100 µM | TGI (SN12C renal): > 100 µM | TGI (IGROV1 ovarian): > 100 µM | TGI (MDA-MB-231 breast): > 100 µM | TGI (SK-MEL-28 melanoma): > 100 µM | TGI (SR leukemia): > 100 µM | TGI (OVCAR-4 ovarian): > 100 µM | TGI (UACC-257 melanoma): > 100 µM | TGI (HT29 colon): > 100 µM | TGI (NCI-H226 lung): > 100 µM | TGI (MCF7 breast): > 100 µM | TGI (SNB-19 CNS): > 100 µM | TGI (DU-145 prostate): > 100 µM

O=[N+]([O-])c1ccc(Oc2c(Cl)cc(S(=O)(=O)/N=C(\NO)Nc3ccc(Cl)cc3)cc2Cl)cc1
TGI (OVCAR-5 ovarian): 25.8 µM | TGI (ACHN renal): 23.8 µM | TGI (SK-MEL-2 melanoma): 24.1 µM | TGI (NCI/ADR-RES ovarian): 32.2 µM | TGI (COLO 205 colon): 29.9 µM | TGI (RPMI-8226 leukemia): 22.8 µM | TGI (MALME-3M melanoma): 29 µM | TGI (SF-295 CNS): 27.3 µM | TGI (MDA-MB-435): 28 µM | TGI (LOX IMVI melanoma): 24.9 µM | TGI (SF-539 CNS): 26.7 µM | TGI (UACC-62 melanoma): 24.1 µM | TGI (HCC-2998 colon): 13.1 µM | TGI (HS 578T breast): 36.7 µM | TGI (HCT-116 colon): 22.6 µM | TGI (NCI-H522 lung): 12.7 µM | TGI (HOP-62 NSCLC): 32.7 µM | TGI (RXF 393 renal): 29.9 µM | TGI (A549 NSCLC): 27.8 µM | TGI (PC-3 prostate): 22.2 µM | TGI (KM12 colon): 29 µM | TGI (MDA-N): 24.8 µM | TGI (TK-10 renal): 23.2 µM | TGI (HOP-92 NSCLC): 11.1 µM | TGI (CAKI-1 renal): 18.9 µM | TGI (UO-31 renal): 19.2 µM | TGI (HL-60(TB) leukemia): 13.7 µM | TGI (EKVX NSCLC): 24.9 µM | TGI (SK-MEL-5 melanoma): 22.2 µM | TGI (K-562 leukemia): 35.9 µM | TGI (786-0 renal): 23.5 µM | TGI (HCT-15 colon): 24.5 µM | TGI (A498 renal): 23.3 µM | TGI (NCI-H460 lung): 24.8 µM | TGI (MOLT-4 leukemia): 21.7 µM | TGI (SF-268 CNS): 35.3 µM | TGI (T-47D breast): 34.3 µM | TGI (M14 melanoma): 25.6 µM | TGI (CCRF-CEM leukemia): 24.5 µM | TGI (BT-549 breast): 25 µM | TGI (U251 CNS): 25.7 µM | TGI (OVCAR-8 ovarian): 27.5 µM | TGI (SK-OV-3 ovarian): 31.2 µM | TGI (SW-620 colon): 28.6 µM | TGI (OVCAR-3 ovarian): 19.4 µM | TGI (SN12C renal): 25.8 µM | TGI (IGROV1 ovarian): 29.8 µM | TGI (MDA-MB-231 breast): 25.3 µM | TGI (SK-MEL-28 melanoma): 28.7 µM | TGI (SR leukemia): 17.2 µM | TGI (OVCAR-4 ovarian): 17.3 µM | TGI (UACC-257 melanoma): 22.6 µM | TGI (HT29 colon): 27.9 µM | TGI (NCI-H226 lung): 35.3 µM | TGI (NCI-H23 lung): 23.6 µM | TGI (MCF7 breast): 24.1 µM | TGI (SNB-19 CNS): 29.2 µM | TGI (DU-145 prostate): 29.3 µM
